Among the data in ChEMBL document CHEMBL4049458, “Structure-Based Optimization of Thiophene[3,2-d]pyrimidine Derivatives as Potent HIV-1 Non-nucleoside Reverse Transcriptase Inhibitors with Improved Potency against Resistance-Associated Variants” (J Med Chem, 2017) are EC50, CC50 and selectivity ratio values, retold here.

For data set [1], the system named is Human immunodeficiency virus 1. Nature of the data set: Antiviral activity against wild type HIV1 3B harboring reverse transcriptase infected in human MT4 cells assessed as protection against virus induced cytotoxicity after 5 days by MTT assay. In kind it is functional, cell-based. The conditions noted are these: Human immunodeficiency virus 1, 3B, MT4, 120 h.

For data set [2], the system named is Human immunodeficiency virus 2. Nature of the data set: Antiviral activity against HIV2 ROD harboring reverse transcriptase infected in human MT4 cells assessed as protection against virus induced cytotoxicity after 5 days by MTT assay. It is filed as functional, cell-based. The conditions noted are these: Human immunodeficiency virus 2, ISOLATE ROD, MT4, 120 h.

A short description of data set [3]: Cytotoxicity against human MT4 cells assessed as cell viability after 5 days by MTT assay. In kind it is cell-based.
Data set [4] is described as follows: Selectivity index, ratio of CC50 for human MT4 cells to EC50 for wild type HIV1 3B harboring reverse transcriptase infected in human MT4 cells.
Data set [5] in a line: Selectivity index, ratio of CC50 for human MT4 cells to EC50 for reverse transcriptase L100I mutant in human MT4 cells infected HIV1 3B.
A short description of data set [6]: Selectivity index, ratio of CC50 for human MT4 cells to EC50 for reverse transcriptase K103N mutant in human MT4 cells infected HIV1 3B.
Data set [7] is described as follows: Selectivity index, ratio of CC50 for human MT4 cells to EC50 for reverse transcriptase Y181C mutant in human MT4 cells infected HIV1 3B.
Data set [8] can be described thus: Selectivity index, ratio of CC50 for human MT4 cells to EC50 for reverse transcriptase Y188L mutant in human MT4 cells infected HIV1 3B.
A short description of data set [9]: Selectivity index, ratio of CC50 for human MT4 cells to EC50 for reverse transcriptase E138K mutant in human MT4 cells infected HIV1 3B.
The nature of data set [10]: Selectivity index, ratio of CC50 for human MT4 cells to EC50 for reverse transcriptase F227L/V106A double mutant in human MT4 cells infected HIV1 3B.
Data set [11] can be described thus: Selectivity index, ratio of CC50 for human MT4 cells to EC50 for HIV1 RES056 reverse transcriptase K103N/Y181C double mutant infected in human MT4 cells.

Where only a bound is given, the exact number is not on record here.

With `Cc1ccc(CN2CCC(Nc3nc(Oc4c(C)cc(/C=C/C#N)cc4C)c4sccc4n3)CC2)cc1`, the values for the EC50 in [1] and in data set [2] were 8.91 nM and more than 2910 nM, respectively. Also, the CC50 at 120 h in data set [3] amounted to 2910 nM. Moreover, the selectivity ratio in [4] (MT4 cells) worked out at 326; in data set [5] (MT4 cells), 91; in data set [6] (MT4 cells), 258; in data set [7] (MT4 cells), 98; in data set [8] (MT4 cells) it was 21; in [9] (MT4 cells), 90. In addition, the selectivity ratio in data set [10] (MT4 cells) came out at 22; in [11] (MT4 cells) it was 20.

In the case of `Cc1cc(/C=C/C#N)cc(C)c1Oc1nc(NC2CCN(Cc3cccc(Br)c3)CC2)nc2ccsc12`, the results for the half-maximal effective concentration (EC50) in data set [1] and in data set [2] were 25.8 nM and more than 7950 nM, respectively. Moreover, the CC50 at 120 h in data set [3] was found to be 7950 nM. Also, the selectivity ratio in data set [4] (MT4 cells) worked out at 308; in [5] (MT4 cells), 279; in [6] (MT4 cells), 269; in data set [7] (MT4 cells), 62; in data set [8] (MT4 cells) it was 48; in data set [9] (MT4 cells), 61. The figures for the selectivity ratio in data set [10] (MT4 cells) and in data set [11] (MT4 cells) were 85 and 37, respectively.

With `CCOC(=O)c1ccc(CN2CCC(Nc3nc(Oc4c(C)cc(C#N)cc4C)c4ccsc4n3)CC2)cc1`, the EC50 in data set [1] was 98.9 nM; in data set [2], more than 230000 nM. Moreover, the CC50 at 120 h in data set [3] was more than 230000 nM. Also, the selectivity ratio in data set [4] (MT4 cells) is more than 2330; in data set [5] (MT4 cells), more than 160; in data set [6] (MT4 cells) it was more than 625; in data set [7] (MT4 cells) it was more than 207; in [8] (MT4 cells), more than 124; in data set [9] (MT4 cells), more than 463. The selectivity ratio in data set [10] (MT4 cells) was more than 63; in [11] (MT4 cells), more than 6.

As to `Cc1cc(C#N)cc(C)c1Oc1nc(NC2CCC(NCc3ccc(O)cc3)CC2)nc2ccsc12` (stereo not given), the EC50 was 1310 nM in [1] and more than 20100 nM in [2]. In data set [3], the CC50 at 120 h came to 20100 nM. The selectivity ratio is 15 in [4] (MT4 cells); less than 1 in [5] (MT4 cells); 4 in data set [6] (MT4 cells); less than 1 in [7] (MT4 cells); less than 1 in data set [8] (MT4 cells); 5 in [9] (MT4 cells). Also, the selectivity ratio in [10] (MT4 cells) and in data set [11] (MT4 cells) was less than 1 in each case.

Regarding `CCOC(=O)C1CN(Cc2ccc(S(N)(=O)=O)cc2)CCC1Nc1nc(Oc2c(C)cc(C#N)cc2C)c2sccc2n1` (stereo not given), the figures for the EC50 in data set [1] and in data set [2] were 134 nM and more than 4240 nM, respectively. Moreover, in [3], the CC50 at 120 h was determined as 4240 nM. For the same compound, the selectivity ratio in data set [4] (MT4 cells) was 32; in [5] (MT4 cells), 11; in data set [6] (MT4 cells), 18; in data set [7] (MT4 cells) it was 23; in [8] (MT4 cells), less than 1; in data set [9] (MT4 cells) it was 7. In addition, the selectivity ratio was 3 in [10] (MT4 cells) and not above 5 in [11] (MT4 cells).

Turning to `Cc1cc(/C=C/C#N)cc(C)c1Oc1nc(NC2CCN(Cc3cccc(C#N)c3)CC2)nc2ccsc12`, the EC50 in [1] was 4.43 nM; in [2] it was more than 2830 nM. Besides, the CC50 at 120 h in data set [3] is 2820 nM. Further, the selectivity ratio is 639 in data set [4] (MT4 cells); 352 in [5] (MT4 cells); 470 in data set [6] (MT4 cells); 105 in [7] (MT4 cells); 55 in data set [8] (MT4 cells); 101 in [9] (MT4 cells). Further, the selectivity ratio in data set [10] (MT4 cells) amounted to 107; in [11] (MT4 cells), 24.

Regarding `Cc1cc(/C=C/C#N)cc(C)c1Oc1nc(NC2CCN(Cc3ccc([N+](=O)[O-])cc3)CC2)nc2ccsc12`, the EC50 in data set [1] is 7.73 nM; in [2], more than 3520 nM. Moreover, the CC50 at 120 h in [3] was 3520 nM. Moreover, the selectivity ratio in data set [4] (MT4 cells) was determined as 456; in [5] (MT4 cells) it was 134; in data set [6] (MT4 cells), 365; in data set [7] (MT4 cells) it was 115; in [8] (MT4 cells), 30; in [9] (MT4 cells), 86. For the same compound, the figures for the selectivity ratio in [10] (MT4 cells) and in data set [11] (MT4 cells) were 33 and 32, respectively.

On to `Cc1cc(/C=C/C#N)cc(C)c1Oc1nc(NC2CCN(Cc3ccc(F)cc3)CC2)nc2ccsc12`, for which the figures for the EC50 in data set [1] and in [2] were 5.86 nM and more than 2580 nM, respectively. Also, in data set [3], the CC50 at 120 h amounted to 2580 nM. Further, the selectivity ratio turned out to be 441 in [4] (MT4 cells); 181 in data set [5] (MT4 cells); 405 in data set [6] (MT4 cells); 95 in data set [7] (MT4 cells); 17 in [8] (MT4 cells); 74 in data set [9] (MT4 cells). Further, the selectivity ratio worked out at 25 in [10] (MT4 cells) and 20 in [11] (MT4 cells).

On to `Cc1cc(/C=C/C#N)cc(C)c1Oc1nc(NC2CCN(Cc3cccc(Cl)c3)CC2)nc2ccsc12`, for which the EC50 in data set [1] is 25.9 nM; in [2], more than 4880 nM. Moreover, the cytotoxic concentration (CC50) at 120 h in [3] is 4880 nM. Besides, the selectivity ratio in data set [4] (MT4 cells) amounted to 188; in data set [5] (MT4 cells), 163; in data set [6] (MT4 cells) it was 164; in data set [7] (MT4 cells), 69; in data set [8] (MT4 cells), 29; in data set [9] (MT4 cells), 37. Besides, the selectivity ratio in [10] (MT4 cells) came to 72; in data set [11] (MT4 cells) it was 33.

Consider `Cc1cc(/C=C/C#N)cc(C)c1Oc1nc(NC2CCN(Cc3ccccc3Cl)CC2)nc2ccsc12`, for which the EC50 in data set [1] was 27.4 nM; in [2], more than 4930 nM. In [3], the CC50 at 120 h came to 4930 nM. Also, the selectivity ratio in data set [4] (MT4 cells) turned out to be 179; in data set [5] (MT4 cells) it was 162; in data set [6] (MT4 cells) it was 169; in data set [7] (MT4 cells), 37; in [8] (MT4 cells), 24; in data set [9] (MT4 cells), 31. In addition, the selectivity ratio in data set [10] (MT4 cells) was determined as 68; in [11] (MT4 cells), 30.

As for `Cc1cc(/C=C/C#N)cc(C)c1Oc1nc(NC2CCN(Cc3ccccn3)CC2)nc2ccsc12`, the EC50 is 3.36 nM in data set [1] and more than 3850 nM in [2]. Besides, the CC50 at 120 h in data set [3] stood at 3850 nM. Besides, the selectivity ratio in data set [4] (MT4 cells) was 1150; in [5] (MT4 cells), 210; in data set [6] (MT4 cells), 724; in data set [7] (MT4 cells), 418; in data set [8] (MT4 cells), 92; in [9] (MT4 cells), 517. In addition, the selectivity ratio in data set [10] (MT4 cells) stood at 144; in data set [11] (MT4 cells), 32.

Turning to `Cc1cc(/C=C/C#N)cc(C)c1Oc1nc(NC2CCN(Cc3ccccc3Br)CC2)nc2ccsc12`, the EC50 was 40.2 nM in data set [1] and more than 5610 nM in [2]. Further, in data set [3], the CC50 at 120 h was determined as 5610 nM. Further, the selectivity ratio in data set [4] (MT4 cells) stood at 140; in data set [5] (MT4 cells), 117; in data set [6] (MT4 cells), 124; in data set [7] (MT4 cells), 45; in data set [8] (MT4 cells), 37; in [9] (MT4 cells), 39. The values for the selectivity ratio in data set [10] (MT4 cells) and in data set [11] (MT4 cells) were 63 and 16, respectively.

In the case of `O=C1Nc2ccc(Cl)cc2[C@@](C#CC2CC2)(C(F)(F)F)O1` [EFAVIRENZ], the CC50 at 120 h in data set [3] was more than 6330 nM.

With `COC(=O)c1ccc(CN2CCC(Nc3nc(Oc4c(C)cc(C#N)cc4C)c4ccsc4n3)CC2)cc1`, the EC50 in data set [1] was 5.26 nM; in data set [2], more than 28600 nM. The CC50 at 120 h in data set [3] amounted to 28600 nM. Also, the selectivity ratio in data set [4] (MT4 cells) worked out at 5450; in [5] (MT4 cells) it was 214; in data set [6] (MT4 cells) it was 982; in [7] (MT4 cells), 316; in data set [8] (MT4 cells) it was 181; in data set [9] (MT4 cells) it was 805. Besides, the selectivity ratio is 109 in data set [10] (MT4 cells) and 19 in data set [11] (MT4 cells).

`Cc1cc(C#N)cc(C)c1Oc1nc(NC2CCCN(Cc3ccc(S(N)(=O)=O)cc3)C2)nc2ccsc12` (stereo not given): the half-maximal effective concentration (EC50) in data set [1] is more than 1170 nM. In addition, in data set [3], the half-maximal cytotoxic concentration (CC50) at 120 h was found to be 1170 nM.

As for `Cc1cc(C#N)cc(C)c1Oc1nc(NC2CCC(NCc3ccc(C(N)=O)cc3)CC2)nc2ccsc12` (stereo not given), the EC50 in [1] is 121 nM. The 50% cytotoxic concentration (CC50) at 120 h in [3] stood at 7720 nM.

Take `Cc1ccnc2c1NC(=O)c1cccnc1N2C1CC1` [NEVIRAPINE]: the CC50 at 120 h in [3] is more than 15000 nM.

For the compound `Cc1cc(/C=C/C#N)cc(C)c1Oc1nc(NC2CCN(Cc3ccc(C(N)=O)cc3)CC2)nc2ccsc12`, the EC50 in [1] was 1.26 nM. Besides, the CC50 at 120 h in [3] is not below 3150 nM.

Take `Cc1cc(C#N)cc(C)c1Oc1nc(NC2CCC(NCc3cccc(C(N)=O)c3)CC2)nc2ccsc12` (stereo not given): the EC50 in data set [1] amounted to 135 nM. Further, the CC50 at 120 h in data set [3] worked out at 9210 nM.

Consider `Cc1cn([C@H]2C[C@H](N=[N+]=[N-])[C@@H](CO)O2)c(=O)[nH]c1=O` [ZIDOVUDINE], for which the EC50 in [1] is 5.81 nM. The CC50 at 120 h in data set [3] was more than 7480 nM. Also, the selectivity ratio in [4] is 625; in data set [5] it was more than 1990; in [6], more than 1430; in data set [7], more than 1120; in data set [8] it was more than 1180; in [9] it was more than 1030. Moreover, the selectivity ratio in data set [10] is more than 1560; in [11], more than 675.

`Cc1cc(C#N)cc(C)c1Oc1nc(NC2CCCN(Cc3ccc(C(N)=O)cc3)C2)nc2ccsc12` (stereo not given): the EC50 in [1] came to 3220 nM. Also, the CC50 at 120 h in data set [3] was 19500 nM.
